The values below come from patent US5719152A, “Tricyclic quinoxalinedione derivatives” (Sumitomo Pharmaceuticals Co., Ltd., priority 1993, dated 1998).

SMILES strings stand for the structures.

For assay [1], the system named is strychnine-insensitive glycine modulatory site of NMDA (N-methyl D-aspartate) receptors. As to conditions: 0.1 mM; rat brain synaptic membrane preparation.
Description: The activities of the compounds were measured by [^3 H] DCKA and [^3 H] glycine binding inhibition studies as illustrated below.
[^3 H] glycine binding studies
A crude rat brain synaptic membrane preparation was washed three times by centrifugation at 50,000×g for 30 min with 50 mM tris acetate (pH 7.4). The pellets obtained were suspended in 0.23M sucrose solution and stored at -80° C. For binding studies, the frozen suspension was thawed, treated with 0.08% triton X-100 at 2° C. for 10 min, and washed twice by the centrifugation as mentioned above. The synaptic membrane thus prepared (ca. 150~200 μg of protein) was incubated with 10 nM [^3 H] glycine (1.11 TBq/mmol) and the test compound (10 ng/mL~0.1 ng/mL) at 2° C. for 10 min in 50 mM tris acetate (pH 7.4). The incubation was terminated by suction filtration using Whatman GF/B glass filter. The radioactivities bound to the membrane on the filter was measured by scintillation counting. Non-specific binding was calculated by the radioactivities measured under the incubations in the presence of 0.1 mM D-serine.
Another assay concerns NMDA-induced seizure. The assay is described as follows: NMDA-induced seizure model. In kind it is in vivo. As to conditions: Mus musculus, ip, 0.5 h; mice; test compound intraperitoneal 30 min before NMDA (5 nmol) i.c.v.; ten mice; read-out: ED50, inhibition of NMDA-induced tonic seizures. The method, then:
The compounds of the present invention attenuated strongly NMDA-induced seizure under systemic administrations in the following in vivo model.
NMDA-induced seizure model
Thirty min later following intraperitoneal administration of the test compound (0.3~30 mg/kg) into each of ten mice tested, NMDA (5 nmol) was administered intracerebroventricularly (i.c.v.). […] The activity of the test compound may be shown by the ED50 value.

Turning to `O=C1C[C@@H]2OCC=C3CN4CC[C@]56c7ccccc7N1[C@H]5[C@H]2[C@H]3C[C@H]46` [strychnine], the “inhibition of [3H] glycine binding” value in assay [1] is given as “not inhibited”.
As usually defined, the ED50 is the dose at which the effect has come halfway, by size or by number of responders. In the case of `Cl.NCc1ccc(NC(=O)C[C@@H]2CCc3cc(Cl)cc4[nH]c(=O)c(=O)n2c34)c(OCC(=O)O)c1` [Example 31, (S)-9-Chloro-5-[p-aminomethyl-o-(carboxymethoxy)phenylcarbamoylmethyl]-6,7-dihydro-1H, 5H-pyrido[1,2,3-de]quinoxaline-2,3-dione hydrochloride], the ED50 in the assay on NMDA-induced seizure worked out at 1 mg/kg.
On the same count and under the same terms, then `Cl.NCc1ccc(NC(=O)C[C@@H]2CCc3cc(Cl)cc4[nH]c(=O)c(=O)n2c34)c(CC(=O)O)c1` [Example 11, (S)-9-Chloro-5-[p-aminomethyl-o-(carboxymethyl)phenylcarbamoylmethyl]-6,7-dihydro-1H, 5H-pyrido[1,2,3-de]quinoxaline-2,3-dione hydrochloride], with 3.1 mg/kg.
The same measure, in the same setting: under `Cl.NCc1ccc(NC(=O)C[C@@H]2CCc3cc(Br)cc4[nH]c(=O)c(=O)n2c34)c(OCC(=O)O)c1` [Example 35, (S)-9-Bromo-5-[p-aminomethyl-o-(carboxymethoxy)phenylcarbamoylmethyl]6,7-dihydro-1H, 5H-pyrido[1,2,3-de]quinoxaline-2,3-dione hydrochloride] stands 2.1 mg/kg.
